Measured values taken from patent publication US20240279845A1, “METHOD FOR PREPARING A LIBRARY OF PEPTIDES OR A PEPTIDE” (ECOLE POLYTECHNIQUE FEDERALE DE LAUSANNE (EPFL), priority 2021, published 2024).

Key:
[1] = biological target: T1, thrombin (Homo sapiens, UniProt P00734); assay: Thrombin inhibition screen of the 96-member disulfide-cyclized peptide library and Ki of purified hit (Example 2); type: biochemical
T1 construct: two polypeptide chains of 36 (light chain) and 259 amino acid residues (heavy chain); purchased Haematologic Technologies HCT-0020
Description: FIG. 7. Library design, peptide recovery quantification by absorption, and thrombin inhibition of the cyclic peptide library. (a) Design of library comprising 96 different peptides and structures of unnatural amino acids used in library. (b) Scatter plot of cyclic peptide concentrations (mM in DMSO) for the 96 synthesized cyclic peptides quantified by absorption at 280 nm. […] (c) Thrombin inhibition measured at an average cyclic peptide concentration of 11 μM. The peptides are ordered according to their thrombin inhibition activity in the first screen (black dots; highest to lowest activity). Green dots indicate thrombin inhibition for the same cyclic peptides measured in a second screen using the same conditions.
Despite the relatively small number of only 96 cyclic peptides and thus small chance of finding an active compounds, we performed a screen against thrombin, an important target for developing anticoagulation therapeutics, using a compound concentration of around 10 μM. […] Biological screens are typically performed at compound concentrations of around 10 μM, which means that the 100% DMSO and 150 mM DIPEA in the around 10 mM peptide stocks get 1000-fold diluted to reach concentrations of 0.1% and 150 μM, respectively, that unlikely affect most biological assays.

[2] = biological target: T2, MDM2 (Homo sapiens, UniProt Q00987); assay: Competition binding experiment of fluorescein-labeled M10 with nutlin-3a on MDM2; conditions: fluorescence polarization
T2 sequence (Q00987 whole entry): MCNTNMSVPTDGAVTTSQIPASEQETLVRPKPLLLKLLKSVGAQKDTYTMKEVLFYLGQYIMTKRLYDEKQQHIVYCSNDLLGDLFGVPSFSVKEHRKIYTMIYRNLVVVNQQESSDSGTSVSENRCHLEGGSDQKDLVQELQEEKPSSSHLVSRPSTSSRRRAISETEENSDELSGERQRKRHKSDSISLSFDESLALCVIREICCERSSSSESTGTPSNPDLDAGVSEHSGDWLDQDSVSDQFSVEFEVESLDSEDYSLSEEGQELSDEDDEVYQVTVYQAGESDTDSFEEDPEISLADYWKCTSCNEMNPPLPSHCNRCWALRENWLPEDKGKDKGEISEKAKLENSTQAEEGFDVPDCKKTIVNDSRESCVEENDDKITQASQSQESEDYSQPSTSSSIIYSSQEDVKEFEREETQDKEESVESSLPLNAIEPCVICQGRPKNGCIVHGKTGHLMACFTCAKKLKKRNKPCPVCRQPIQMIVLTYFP
Description: We subsequently performed a third cycle of library synthesis and screening, where we acylated the nine most promising scaffolds of the previous screens with 15 additional carboxylic acids, which were mostly cinnamic acid derivatives with larger substituents. We subsequently identified M10, which is a macrocycle based on the original scaffold and acylated with acid 120 that displaced the fluorescent probe used, F-M8, to 84% from MDM2 at 750 nM, and more efficiently than the parent compounds, M8 and M9 (FIG. 18c). […] With the fluorescein conjugate, we also performed a competition experiment with nutlin-3a that binds to a defined hydrophobic pocked of MDM2 (B. Anil et al., Acta Crystallogr. Sect. D Biol. Crystallogr. 2013, 69, 1358-1366) and is a precursor of nutlin-based clinical candidates.

[3] = biological target: T1, thrombin; assay: Substrate KM for protease screen, thrombin; type: biochemical
Description: Crude macrocyclic libraries (4 mM DMSO stocks in 384-well LDV plates were transferred into 1536-well microtiter OptiPlates via ADE. Applied buffered solutions were prepared by filtration through PTFE syringe filters (0.22 μm) and assays were initiated by addition of protease (4.41 μl/well) in appropriate buffer (see list below) supplemented with bovine serum albumin (BSA; 0.1% w/v) and dispensed using a CERTUS automated liquid handler. Plates were incubated for 10 min at ambient temperature before fluorogenic substrate in appropriate buffer (4.5 μl) was added using a CERTUS automated liquid handler. Plates were centrifugated (800 g, 2 min) and fluorescence intensity was measured using a PHERAstar plate reader (excitation 384 nm, emission 440 nm) in time increments of 150 s over 15 min. Slopes of fluorescence increase (m) were calculated with Microsoft Excel (vers. 16.56). Negative controls were prepared without macrocycle. An average of 12 negative controls was used to calculate residual activities using Equation I below: […]
where [S]0 is the initial substrate concentration and KM is the Michaelis-Menten constant^12 for the enzyme and substrate.

[4] = biological target: T2, MDM2; assay: Determining Kds of MDM2 binders by SPR; type: binding; conditions: unlabeled macrocycles, single cycle kinetics
Description: FIG. 30. Binding of macrocycles to MDM2 measured by SPR. a, Single-cycle SPR sensorgrams for fluorescein-labeled macrocycles, positive control nutlin-3a (not fluorescein labeled), and negative controls (thrombin inhibitors; not fluorescein labeled). RU, response unit. b, Single-cycle SPR sensorgrams for macrocycles M6, M7, M8 and M10 (not fluorescein-labeled), performed in triplicate.
Experiments were performed using a GE Healthcare Biacore 8K instrument. MDM2 (10 μg/mL) was dissolved in 10 mM MES buffer (pH 6.0) and immobilized on three channels of a CM5 series S chip (Cytiva, 29104988) using EDC/NHS amine coupling conditions in running buffer (10 mM PBS pH 7.4, 150 mM NaCl, 3 mM KCI, and 0.005% v/v Tween-20). Typical immobilization level was 6,000 to 7,000 resonance units (RUs). The reference cell was treated the same way without MDM2. For the measurement of binding kinetics and dissociation constants, five serial dilutions (3-fold) of macrocycles plus a DMSO blank were prepared in running buffer (10 mM PBS PH 7.4, 150 mM NaCl, 3 mM KCl, and 0.005% v/v Tween-20, and 0.5% v/v DMSO) and analyzed in single cycle kinetics mode with contact and dissociation times of 120 seconds and 60 seconds, respectively.

[5] = biological target: T2, MDM2; assay: MDM2 fluorescence polarization competition assay (displacement of FP53 peptide probe); type: binding; conditions: purified macrocycles, 1.2 μM MDM2; read-out: IC50 displacement of fluorescent peptide probe from MDM2
Description: The library was screened by dispensing to the reactions in the 384-mictrowell plates the target protein MDM2 and a reporter peptide to measure binding of the macrocycles.
One fluorescence anisotropy reading was taken with a Tecan Infinite F200 Pro fluorescence plate reader (excitation at 485 nm, emission at 535 nm) at 25° C.The percentage of probe displacement was calculated using to the following formula,
Volumes of 5 μL of purified macrocycles (20 mM in DMSO) were serial diluted two-fold in 100% DMSO in a low dead-volume ECHO source plate. Using acoustic droplet transfer, 150 nl of each dilution was transferred to a 384 well low volume polystyrene plate (Nunc, 264705). […] Fluorescence anisotropy was measured as described above. The percentage of bound inhibitor was calculated using the following equation
where N is the average anisotropy of the DMSO controls, X is the anisotropy value obtained for each well, and P is the average anisotropy of the unbound probe. The ICsos were determined by plotting the percent of bound inhibitor against the logarithm of the corresponding macrocycle concentration, and the curves were fitted in GraphPad Prism 6 as described above.

Compound	Kd [4] [nM]	IC50 [5] [nM]	further results
Mpa-Tyr-II-Pro-Mea			Ki ([1]; HPLC-purified disulfide cyclized peptide): 13000 ± 1000 nM; reduction of thrombin activity ([1]; crude cyclic peptide, compound concentration of around 10 μM): 52%
nutlin-3a			competition with fluorescein conjugate of M10 for MDM2 [2]: did not compete
Cc1cc(=O)oc2cc(NC(=O)[C@H](CCCNC(=N)N)NC(=O)CNC(=O)CNC(=O)OCc3ccccc3)ccc12 [Cbz-G-G-R-AMC]			Km [3]: 305 ± 46 µM
O=C(NC[C@@H]1NC(=O)[C@H]2CCCN(C2)C(=O)CCSSCCNC(=O)[C@H](Cc2c[nH]c3ccccc23)NC1=O)c1ccc(Cl)cc1 [M7]	550 ± 190	~1000	
O=C(NC[C@@H]1NC(=O)[C@H]2CCCN(C2)C(=O)CCSSCCNC(=O)[C@H](Cc2c[nH]c3ccccc23)NC1=O)c1ccc(Cl)s1 [M6]	600 ± 300	~1000	
O=C(/C=C/c1ccccc1)NC[C@@H]1NC(=O)[C@H]2CCCN(C2)C(=O)CCSSCCNC(=O)[C@H](Cc2c[nH]c3ccccc23)NC1=O [M8]	169 ± 93	~1000	
